Laboratory results: patent publication US20240342179A1, “TREATMENT OF CANCERS OR NEOPLASMS BY INHIBITING KIF15” (University of Kansas, priority 2023, published 2024)

How the values were obtained:
KIF11 = KIF11 (Homo sapiens (Human), UniProt P52732); settings: b18, cited from earlier work
[1] = tested on: ovarian cancer cell lines; experiment: cells; settings: 72 h, read-out: IC50 cell viability
[2] = tested on: HIO-80, HIO-118, FT190, FT194; experiment: CellTiter Glo cell viability, immortalized non-tumorigenic cell lines; format: cell-based; settings: control cell lines, 72 hours
[3] = tested on: ovarian cancer cell lines; settings: 72 h
KIF15 = KIF15 (Homo sapiens (Human), UniProt Q9NS87); settings: read-out: median inhibitory concentration; cited from earlier work
Chain of KIF15 (Q9NS87 whole entry): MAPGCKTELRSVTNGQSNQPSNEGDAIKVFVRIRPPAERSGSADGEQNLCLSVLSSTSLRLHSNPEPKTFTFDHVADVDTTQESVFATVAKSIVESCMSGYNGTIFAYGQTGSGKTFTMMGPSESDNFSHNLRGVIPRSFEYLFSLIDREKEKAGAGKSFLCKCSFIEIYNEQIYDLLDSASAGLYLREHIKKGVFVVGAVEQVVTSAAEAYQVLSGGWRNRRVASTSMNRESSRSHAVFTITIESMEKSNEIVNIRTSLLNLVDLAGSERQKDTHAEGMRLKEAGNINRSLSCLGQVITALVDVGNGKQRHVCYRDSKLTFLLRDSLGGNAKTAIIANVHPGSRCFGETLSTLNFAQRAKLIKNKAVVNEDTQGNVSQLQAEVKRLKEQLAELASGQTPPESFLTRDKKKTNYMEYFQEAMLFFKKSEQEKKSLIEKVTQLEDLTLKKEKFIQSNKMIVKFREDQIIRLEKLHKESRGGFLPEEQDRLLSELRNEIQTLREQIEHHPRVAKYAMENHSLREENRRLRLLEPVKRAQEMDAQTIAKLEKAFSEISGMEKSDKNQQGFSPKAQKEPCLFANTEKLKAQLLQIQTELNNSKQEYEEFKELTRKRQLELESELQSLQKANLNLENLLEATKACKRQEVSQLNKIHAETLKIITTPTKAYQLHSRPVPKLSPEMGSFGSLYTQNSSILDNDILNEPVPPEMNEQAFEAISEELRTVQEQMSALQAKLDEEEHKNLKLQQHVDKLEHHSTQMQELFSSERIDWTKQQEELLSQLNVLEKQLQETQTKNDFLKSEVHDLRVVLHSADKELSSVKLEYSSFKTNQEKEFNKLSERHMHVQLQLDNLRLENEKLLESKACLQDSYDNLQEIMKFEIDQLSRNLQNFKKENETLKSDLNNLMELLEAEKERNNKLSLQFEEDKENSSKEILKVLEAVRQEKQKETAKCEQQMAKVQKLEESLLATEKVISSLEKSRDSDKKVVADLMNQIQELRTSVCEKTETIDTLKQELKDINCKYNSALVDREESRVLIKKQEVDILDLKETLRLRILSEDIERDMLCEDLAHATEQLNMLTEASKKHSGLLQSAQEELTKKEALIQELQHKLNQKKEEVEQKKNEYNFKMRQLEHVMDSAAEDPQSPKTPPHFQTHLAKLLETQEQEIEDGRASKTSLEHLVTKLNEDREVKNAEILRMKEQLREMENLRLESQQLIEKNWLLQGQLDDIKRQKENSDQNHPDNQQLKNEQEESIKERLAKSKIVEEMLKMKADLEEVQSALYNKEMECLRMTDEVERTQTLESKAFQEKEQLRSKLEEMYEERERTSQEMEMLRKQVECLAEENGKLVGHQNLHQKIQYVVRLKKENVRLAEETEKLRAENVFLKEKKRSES

Chain of KIF11 (P52732 whole entry): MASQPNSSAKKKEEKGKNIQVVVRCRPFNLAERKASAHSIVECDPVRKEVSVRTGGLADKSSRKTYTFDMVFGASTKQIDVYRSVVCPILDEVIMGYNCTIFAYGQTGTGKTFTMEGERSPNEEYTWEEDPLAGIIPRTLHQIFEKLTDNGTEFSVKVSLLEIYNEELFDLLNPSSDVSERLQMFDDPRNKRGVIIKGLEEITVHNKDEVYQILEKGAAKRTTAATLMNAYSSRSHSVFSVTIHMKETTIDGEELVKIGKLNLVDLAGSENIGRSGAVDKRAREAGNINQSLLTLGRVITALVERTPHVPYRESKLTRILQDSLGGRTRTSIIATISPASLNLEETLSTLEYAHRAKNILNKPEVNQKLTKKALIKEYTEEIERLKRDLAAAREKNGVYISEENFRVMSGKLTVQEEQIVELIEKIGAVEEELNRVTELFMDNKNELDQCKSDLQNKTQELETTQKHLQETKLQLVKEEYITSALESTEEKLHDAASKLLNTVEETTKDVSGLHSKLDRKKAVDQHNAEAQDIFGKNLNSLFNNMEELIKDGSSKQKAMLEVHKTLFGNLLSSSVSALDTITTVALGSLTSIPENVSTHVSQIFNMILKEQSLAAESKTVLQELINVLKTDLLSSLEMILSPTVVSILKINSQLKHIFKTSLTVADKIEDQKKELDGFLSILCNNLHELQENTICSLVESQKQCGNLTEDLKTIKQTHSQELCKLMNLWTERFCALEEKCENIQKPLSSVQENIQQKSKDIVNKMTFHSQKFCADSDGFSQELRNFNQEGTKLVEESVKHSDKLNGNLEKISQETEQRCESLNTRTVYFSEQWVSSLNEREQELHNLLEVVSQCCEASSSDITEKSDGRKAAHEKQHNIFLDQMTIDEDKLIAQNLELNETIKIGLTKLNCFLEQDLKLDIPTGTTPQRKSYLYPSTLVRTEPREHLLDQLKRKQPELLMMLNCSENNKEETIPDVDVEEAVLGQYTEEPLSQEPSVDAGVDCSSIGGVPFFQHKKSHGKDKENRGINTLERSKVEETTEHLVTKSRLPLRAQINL

For CON(C)C(=O)N1N=C(c2cc(F)ccc2F)S[C@@]1(CCCN)c1ccccc1 [filanesib], the Ki (KIF11; read-out: K values) is listed as 6 nM.

In the case of CCOC(=O)C1=C(C)NC(=S)NC1c1cccc(O)c1 (stereo not drawn) [monastrol], the “inhibit motor ATP hydrolysis” value (KIF11) is given as 4.9 µM.

For Cc1ccc(C(=O)N(CCCN)[C@@H](c2nc3cc(Cl)ccc3c(=O)n2Cc2ccccc2)C(C)C)cc1 [ispinesib], the IC50 [1] was 1.07 to 15.8 nM, the IC50 [2] was 7.04 to 23.4 nM and the loss of viability [3] was “greater than 50%”.

For O=C1Nc2ccc(C(=O)c3ccco3)cc2/C1=C/c1cc(Cl)c(O)c(Cl)c1 [GW108X], the IC50 (KIF15) is listed as 800 nM.
